Paper PMC4077824, “Conserved Prosegment Residues Stabilize a Late-Stage Folding Transition State of Pepsin Independently of Ground States” (PLoS ONE, 2014)
Entries after “also recorded” stand apart in the source; their conditions may differ. Where no end group is shown, it is not given here.

Experiments:
native pepsin (Np) = biological target: T1, native pepsin (Np) (Sus scrofa, UniProt P00791); assay: PS binding to Np (competitive inhibition of KPAEFF(NO2)AL hydrolysis); format: biochemical, porcine; conditions: for Ki: 10 nM Np, 20 mM acetic acid/NaOH pH 5.3, 100 mM NaCl, 5 min incubation, substrate KPAEFF(NO2)AL 0.1 mM, absorbance 300 nm, competitive model, mean ± SD from non-linear curve fitting, 3-5 measurements, read-out: K i (PS-Np inhibition constant); for Ki / ΔΔGPS-Np (change in PS-Np binding energy upon mutation): 20°C; for ΔΔGPS-Np (change in PS-Np binding energy upon mutation): from K i, pH 5.3, relative to WT, ± SD by propagation of errors; for effect on affinity for Np / PS-Np stability (in words): pH 5.3, 20°C, PS inhibition of Np, compared with PSwt
T1 construct: Only the R13 and K36 side-chains of the PS form hydrogen bonds with the mature pepsin domain; purchased Sigma (St. Louis, MO, USA)
T1 sequence (P00791 60-385): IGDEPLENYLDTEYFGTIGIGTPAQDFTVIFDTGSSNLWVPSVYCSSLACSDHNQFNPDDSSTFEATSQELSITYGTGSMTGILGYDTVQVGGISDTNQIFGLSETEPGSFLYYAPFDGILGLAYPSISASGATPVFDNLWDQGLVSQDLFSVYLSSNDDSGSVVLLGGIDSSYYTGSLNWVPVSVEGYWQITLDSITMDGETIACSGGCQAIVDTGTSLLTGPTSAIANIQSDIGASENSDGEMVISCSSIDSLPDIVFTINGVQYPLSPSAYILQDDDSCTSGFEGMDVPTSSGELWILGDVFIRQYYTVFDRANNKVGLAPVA
Method: PS binding to Np was determined by using the PS as a competitive inhibitor and measuring the inhibition constant, K i. Hydrolysis of the KPAEFF(NO2)AL substrate was measured by following the decrease in absorbance at 300 nm using a Biochrom Ultrospec 3100pro UV-Vis spectrophotometer (Biochrom Ltd., Cambridge, England) in 20 mM acetic acid/NaOH buffer, pH 5.3, containing 100 mM NaCl. Np samples were diluted to 10 nM and incubated with PS for 5 min at 20°C and assayed for activity. The reaction rates were normalized to the activity in the absence of PS and the data fit using the competitive inhibitor form of the Michaelis-Menten equation [drawing 2] (2) where v0 is the initial reaction rate, V max is the maximum reaction rate, [S] is the substrate concentration (fixed at 0.1 mM), [I] is the inhibitor concentration, and K M is the Michaelis constant.
(§1) The change in stability of the folding transition state upon mutation was calculated using [drawing 3] (3) where k f, wt and k f, mut are the PS-catalyzed folding rate constants of the wild-type and mutant PS peptides. The change in equilibrium stability of PS-Np relative to PS-Rp upon mutation of the PS (ΔΔGPS(Np-Rp)) was determined as the difference between the changes in binding energies, using [drawing 4] (4) and [drawing 5] (5)
(§2) Here, ΔΔGbind refers to either ΔΔGPS-Rp, determined from K d values, or ΔΔGPS-Np, determined from K i values. The Φ-value for each mutant corresponds to eq 3 divided by eq 5. Additional details are included in the supporting information section (Text S1).

refolded pepsin (Rp) [1] = biological target: T2, refolded pepsin (Rp) (Sus scrofa, UniProt P00791); assay: PS binding to Rp (Trp-fluorescence); set-up: species or system porcine; conditions: for Kd: 0.6-1.2 µM Rp, 20 mM acetic acid/NaOH pH 5.3 without added NaCl, ≥10 min, Trp-fluorescence ex 295 nm, em 315 nm, mean ± SD from non-linear curve fitting, 3-5 measurements, read-out: K d (PS-Rp dissociation constant); for Kd / ΔΔGPS-Rp (change in PS-Rp binding energy upon mutation): 20°C; for ΔΔGPS-Rp (change in PS-Rp binding energy upon mutation): from K d, pH 5.3, relative to WT, ± SD by propagation of errors; for effect on affinity for Rp / PS-Rp stability (in words): pH 5.3, 20°C, compared with PSwt
T2 construct: Only the R13 and K36 side-chains of the PS form hydrogen bonds with the mature pepsin domain; purchased Sigma (St. Louis, MO, USA)
T2 sequence (P00791 60-385): as above
Method: The change in intrinsic tryptophan fluorescence of pepsin was used to measure the binding of PS to Rp and to determine the dissociation constant, K d. Rp solutions were diluted to between 0.6 and 1.2 µM in 20 mM acetic acid/NaOH buffer, pH 5.3, and mixed with various amounts of PS. After incubating the samples at 20°C for ≥10 minutes, the intrinsic tryptophan fluorescence was measured using a PTI spectrofluorophotometer (Photon Technology International, Inc., Birmingham NJ, USA), with excitation at 295 nm and emission measured at 315 nm. The change in fluorescence, ΔF i, at each PS concentration, [PS], was normalized relative to the maximum change, ΔF max, and fit according to [drawing 1] (1) where [Rp] is the total concentration of pepsin.
PS binding to Rp was measured in buffer without added 100 mM NaCl in order to obtain more accurate measurements of K d, owing to a larger change in signal in the absence of salt. Additionally, without added 100 mM NaCl it was possible to isolate the PS-Rp binding step from the catalyzed folding step thereby improving the determination of K d.
as §1, §2

refolded pepsin (Rp) [2] = biological target: T2, refolded pepsin (Rp); assay: PS-catalyzed folding of Rp to Np (recovery of Np activity); format: biochemical, porcine; conditions: for k f (PS-catalyzed folding rate constant): 1 µM Rp, 30 µM PS, pH 5.3 (20 mM acetic acid/NaOH, 100 mM NaCl), Np activity assayed at pH 1.2, 25°C with KPAEFF(NO2)AL, monoexponential fit, mean ± SD from non-linear curve fitting, 3-5 measurements; for k f (PS-catalyzed folding rate constant) / ΔΔG^‡ (change in folding activation energy upon mutation): 15°C; for ΔΔG^‡ (change in folding activation energy upon mutation): from k f, pH 5.3, relative to WT, ± SD by propagation of errors
Method: PS-catalyzed folding of Rp to Np
PS-catalyzed folding was carried out by combining 1 µM Rp and 30 µM PS, in a volume of 100 µl, at pH 5.3 (20 mM acetic acid/NaOH with 100 mM NaCl) and 15°C. Aliquots were taken at several time intervals, diluted 20-fold in 50 mM phosphoric acid buffer, pH 1.2, incubated for 5 min at 25°C and assayed for Np activity using the KPAEFF(NO2)AL substrate. The recovery of Np activity with time, t, was fit with a monoexponential function (y = a – bexp(–k f t)) to obtain the PS-catalyzed folding rate constant, k f. Under these conditions, PS binding to Rp reached equilibrium within the dead-time of mixing (<8 sec), as judged by Trp-fluorescence.
as §1
Temperature dependence of PS-catalyzed folding
PS-catalyzed folding could be measured only up to 15 °C for PSwt, as the reaction was too fast at higher temperatures. […] Given the linear temperature dependence it could be reasonably assumed that changes in activation energies (mutant – wild-type) would be unchanged from 15 °C to 20 °C, and so could be compared directly with changes in binding energies (wild-type – mutant) that were determined at 20 °C.

Row | Sequence | Ki (native pepsin (Np)) | ΔΔGPS-Np (change in PS-Np binding energy upon mutation) (native pepsin (Np)) | effect on affinity for Np / PS-Np stability (in words) (native pepsin (Np)) | Kd (refolded pepsin (Rp) [1]) | ΔΔGPS-Rp (change in PS-Rp binding energy upon mutation) (refolded pepsin (Rp) [1]) | effect on affinity for Rp / PS-Rp stability (in words) (refolded pepsin (Rp) [1]) | k f (PS-catalyzed folding rate constant) (refolded pepsin (Rp) [2]) | ΔΔG^‡ (change in folding activation energy upon mutation) (refolded pepsin (Rp) [2]) | effect on rate of PS-catalyzed folding (in words) (refolded pepsin (Rp) [2]; pH 5.3, 15°C, compared with PSwt)
1 | LVKVPLVRKKSLRQNLAKNGKLKDFLKTHKHNPASKYFPEAAAL [I17A] | 394 ± 65.1 nM | 1.05 ± 0.14 kcal/mol | largest reduction in affinities for Np; also recorded: one of the most destabilizing mutations to the PS-Np complex | 210 ± 90 nM | -0.21 ± 0.24 kcal/mol | negligible effect on PS-Rp binding; also recorded: negligible effect on PS-Rp and PS-TS stability | 1.40 ± 0.26 min⁻¹ | 0.01 ± 0.18 kcal/mol | no effect
2 | LVKAPLVRKKSLRQNLIKNGKLKDFLKTHKHNPASKYFPEAAAL [V4A] | 50.9 ± 6.9 nM | -0.14 ± 0.13 kcal/mol | very small stabilizing effect on PS-Np; also recorded: stabilizing to the native state | 1190 ± 230 nM | 0.79 ± 0.12 kcal/mol | relatively large destabilizing effect on PS-Rp | 0.27 ± 0.03 min⁻¹ | 0.94 ± 0.15 kcal/mol | 
3 | LVKVPLVRKKSLRQNLIKNGKLKDFLKTHKHNPASKYFPEAAAL [WT] | 64.8 ± 11.4 nM |  |  | 310 ± 30 nM |  |  | 1.42 ± 0.34 min⁻¹ |  | 
